# In ChEMBL document CHEMBL2439949, “Synthesis and structure-activity relationships of phenyl-substituted coumarins with anti-tubercular activity that target FadD32” (Bioorg Med Chem Lett, 2013):
# Activity calls are given as the source filed them. The calls are words filed in the database; no cut-off is given here.
# Legend:
# [1] = Tmax in Balb/c mouse at 1 mg/kg, iv; type: ADME, organism-based; set-up: dose 1 mg/kg, route intravenous; conditions: in vivo
# [2] = AUC (0 to infinity) in Balb/c mouse at 10 mg/kg, po; type: ADME, organism-based; set-up: time infinity, dose 10 mg/kg, route oral; conditions: plasma
# [3] = Metabolic stability of the compound in Balb/c mouse plasma assessed as compound remaining at 1 uM after 8 hrs; type: ADME, cell-free; conditions: read-out: Stability
# [4] = MRTlast in Balb/c mouse at 10 mg/kg, po; type: ADME, organism-based; set-up: dose 10 mg/kg, route oral; conditions: in vivo
# [5] = Tmax in Balb/c mouse at 10 mg/kg, po; type: ADME, organism-based; set-up: dose 10 mg/kg, route oral; conditions: in vivo
# Mus musculus [6] = assay: Volume of distribution in Balb/c mouse at 10 mg/kg, po; type: ADME, organism-based; set-up: dose 10 mg/kg, route oral; conditions: in vivo
# [7] = Half life in Balb/c mouse at 10 mg/kg, po; type: ADME, organism-based; set-up: dose 10 mg/kg, route oral; conditions: in vivo
# [8] = AUClast in Balb/c mouse at 1 mg/kg, iv; type: ADME, organism-based; set-up: time 0 - last, dose 1 mg/kg, route intravenous; conditions: plasma
# [9] = AUClast in Balb/c mouse at 10 mg/kg, po; type: ADME, organism-based; set-up: time 0 - last, dose 10 mg/kg, route oral; conditions: plasma
# [10] = Clearance in Balb/c mouse at 1 mg/kg, iv; type: ADME, organism-based; set-up: dose 1 mg/kg, route intravenous; conditions: in vivo
# [11] = Oral bioavailability in Balb/c mouse at 10 mg/kg; type: ADME, organism-based; conditions: in vivo
# [12] = Initial plasma concentration in Balb/c mouse at 1 mg/kg, iv; type: ADME, organism-based; set-up: dose 1 mg/kg, route intravenous
# [13] = Permeability of the compound from apical to basolateral side of human Caco2 cells at 10 uM; type: ADME, cell-based; conditions: Caco-2, read-out: permeability
# [14] = Permeability of the compound from basolateral to apical side of human Caco2 cells at 10 uM; type: ADME, cell-based; conditions: Caco-2, read-out: permeability
# [15] = Half life in Balb/c mouse liver microsomes at 100 uM; type: ADME, Microsome
# [16] = MRTlast in Balb/c mouse at 1 mg/kg, iv; type: ADME, organism-based; set-up: dose 1 mg/kg, route intravenous; conditions: in vivo
# [17] = Volume of distribution in Balb/c mouse at 1 mg/kg, iv; type: ADME, organism-based; set-up: dose 1 mg/kg, route intravenous; conditions: in vivo
# [18] = Half life in Balb/c mouse at 1 mg/kg, iv; type: ADME, organism-based; set-up: dose 1 mg/kg, route intravenous; conditions: in vivo
# [19] = Clearance in Balb/c mouse at 10 mg/kg, po; type: ADME, organism-based; set-up: dose 10 mg/kg, route oral; conditions: in vivo
# [20] = Intrinsic clearance in Balb/c mouse liver microsomes at 100 uM; type: ADME, Microsome; conditions: read-out: CLH
# Mus musculus [21] = assay: Initial plasma concentration in Balb/c mouse at 10 mg/kg, po; type: ADME, organism-based; set-up: dose 10 mg/kg, route oral; conditions: in vivo
# [22] = AUC (0 to infinity) in Balb/c mouse at 1 mg/kg, iv; type: ADME, organism-based; set-up: time infinity, dose 1 mg/kg, route intravenous; conditions: plasma
# [23] = tested on: Mycobacterium tuberculosis; assay: Antimycobacterial activity against Mycobacterium tuberculosis H37Rv after 7 days; type: functional; conditions: 168 h
# HepG2 = assay: Cytotoxicity against human HepG2 cells at 125 uM after 48 hrs; type: cell-based; conditions: hepg2, 48 h
# [24] = tested on: Mycobacterium tuberculosis; assay: Antimycobacterial activity against Mycobacterium tuberculosis H37Rv at 64 uM after 7 days; type: functional, organism-based
# [25] = Plasma protein binding in human at 1 uM after 5 hrs; type: ADME, cell-free; conditions: read-out: PPB (converted)
# [26] = Solubility in water; type: physicochemical
# [27] = Metabolic stability of the compound in human plasma assessed as compound remaining at 1 uM after 5 hrs; type: ADME, cell-free; conditions: read-out: Stability
# [28] = tested on: Mycobacterium tuberculosis; assay: Antimycobacterial activity against Mycobacterium tuberculosis H37Rv at 62 uM after 7 days; type: functional, organism-based
# [29] = Cytotoxicity against human HepG2 cells after 48 hrs; type: cell-based; conditions: read-out: LD50
# [30] = tested on: Mycobacterium tuberculosis; assay: Antimycobacterial activity against Mycobacterium tuberculosis H37Rv at 250 uM after 7 days; type: functional
structure (smiles),measurement,setting,value
Cc1cc2oc(=O)cc(-c3cccc(N)c3)c2c(C)c1-c1ccc(CN2CCOCC2)cc1.Cl.Cl,Tmax,[1],4.98 min
same,AUC(0-inf),[2],3190 ng·h/mL
same,"remaining at 8 h, 1 µM",[3],112%
same,MRT last,[4],4.31 h
same,Tmax,[5],2 h
same,Vd,Mus musculus [6],12.25 L/kg
same,half-life,[7],2.71 h
same,AUC(0-t),[8],513 ng·h/mL
same,AUC(0-t),[9],3180 ng·h/mL
same,clearance,[10],31.1 mL/min/kg
same,bioavailability,[11],62%
same,C0,[12],851 ng/mL
same,Papp A→B at 10 µM,[13],34.5 ×10⁻⁶ cm/s
same,Papp B→A at 10 µM,[14],76.9 ×10⁻⁶ cm/s
same,half-life at 100 µM,[15],8.63 h
same,MRT last,[16],1.36 h
same,Vd,[17],3.91 L/kg
same,half-life,[18],1.45 h
same,CL/F,[19],52.3 mL/min/kg
same,CLint scaled at 100 µM,[20],80.3 mL/min/kg
same,C0,Mus musculus [21],642.06 ng/mL
same,AUC(0-inf),[22],536 ng·h/mL
Cc1cc2oc(=O)cc(-c3ccccc3)c2cc1-c1ccc(CO)cc1,IC90,[23],68 µM
Cc1cc(-c2ccc3oc(=O)cc(-c4ccccc4)c3c2)c(C)cc1CO,IC90,[23],170 µM
Cc1cc2oc(=O)cc(-c3ccccc3)c2c(C)c1-c1ccc(F)cc1,IC90,[23],26 µM
Cc1cc2oc(=O)cc(-c3ccccc3)c2c(C)c1-c1cccc(F)c1,IC90,[23],21 µM
CCOC(=O)Nc1cccc(-c2cc(=O)oc3cc(C)c(-c4ccc(CN5CCOCC5)cc4)c(C)c23)c1,IC90,[23],39 µM
Cc1cc2oc(=O)cc(-c3ccccc3)c2c(C)c1-c1ccc(CN2CCCCC2)cc1,Activity,HepG2,Non-toxic
same,IC90,[23],19 µM
Cc1cc2oc(=O)cc(-c3ccccc3)c2c(C)c1-c1ccccc1Cl,Activity,HepG2,Non-toxic
same,IC90,[23],22 µM
Cc1cc2oc(=O)cc(-c3ccccc3)c2c(C)c1Br,Activity,[24],inactive
CC(=O)c1ccc(-c2c(C)cc3oc(=O)cc(-c4ccccc4)c3c2C)cc1,IC90,[23],220 µM
O=c1cc(-c2ccccc2)c2cc(-c3ccc(CO)cc3)ccc2o1,IC90,[23],115 µM
COC(=O)c1cccc(-c2cc(=O)oc3cc(C)c(-c4ccc(CN5CCOCC5)cc4)c(C)c23)c1,IC90,[23],59 µM
Cc1cc2oc(=O)cc(-c3ccccc3)c2c(C)c1-c1cccc(C(F)(F)F)c1,Activity,[24],inactive
Cc1cc(-c2c(C)cc3oc(=O)cc(-c4ccccc4)c3c2C)ccn1,IC90,[23],36 µM
Cc1cc2oc(=O)cc(-c3ccccc3)c2c(C)c1-c1cccnc1,IC90,[23],69 µM
Cc1cc2oc(=O)cc(-c3ccccc3)c2c(C)c1-c1ccncc1,Activity,HepG2,Non-toxic
same,"fraction unbound at 5 h, 1 µM",[25],0.012
same,solubility,[26],3.2 µM
same,"remaining at 5 h, 1 µM",[27],83.5%
same,IC90,[23],2 µM
Cc1cc2oc(=O)cc(-c3ccccc3)c2c(C)c1-c1cccc(Cl)c1,IC90,[23],260 µM
Cc1ccc(-c2c(C)cc3oc(=O)cc(-c4ccccc4)c3c2C)cc1,IC90,[23],36 µM
Cc1c(-c2ccc(CO)cc2)ccc2oc(=O)cc(-c3ccccc3)c12,IC90,[23],70 µM
Cc1ccc(/C=C/c2c(C)cc3oc(=O)cc(-c4ccccc4)c3c2C)cc1,IC90,[23],61 µM
Cc1cc2oc(=O)cc(-c3ccccc3)c2c(C)c1-c1cncnc1,IC90,[23],8 µM
COc1cccc(-c2c(C)cc3oc(=O)cc(-c4ccccc4)c3c2C)c1,IC90,[23],31 µM
Cc1cc2oc(=O)cc(-c3cccc(NS(C)(=O)=O)c3)c2c(C)c1-c1ccc(CN2CCOCC2)cc1,IC90,[23],59 µM
Cc1cc(CO)ccc1-c1c(C)cc2oc(=O)cc(-c3ccccc3)c2c1C,Activity,HepG2,Non-toxic
same,IC90,[23],22 µM
COc1ccccc1-c1c(C)cc2oc(=O)cc(-c3ccccc3)c2c1C,Activity,[24],inactive
Cc1cc2oc(=O)cc(-c3cccc([N+](=O)[O-])c3)c2c(C)c1-c1ccc(CN2CCOCC2)cc1,Activity,HepG2,Non-toxic
same,IC90,[23],6 µM
C=Cc1ccc(-c2c(C)cc3oc(=O)cc(-c4ccccc4)c3c2C)cc1,IC90,[23],184 µM
COc1ccc(C2=CC(=O)Cc3cc(C)c(-c4ccc(CN5CCOCC5)cc4)c(C)c32)cc1,Activity,[28],inactive
Cc1cc2oc(=O)cc(-c3ccccc3)c2c(C)c1-c1ccc(CN2CCN(C)CC2)cc1,Activity,HepG2,Non-toxic
same,IC90,[23],5.89 µM
Cc1cc2oc(=O)cc(-c3ccccc3)c2c(C)c1-c1ccc(CNC2CCCCC2)cc1,Activity,HepG2,Non-toxic
same,CC50 at 48 h,[29],32 µM
same,IC90,[23],5 µM
Cc1cc2oc(=O)cc(-c3ccccc3)c2c(C)c1-c1ccc(CN2CCOCC2)cc1,Activity,HepG2,Non-toxic
same,"fraction unbound at 5 h, 1 µM",[25],0.014
same,solubility,[26],36.1 µM
same,"remaining at 5 h, 1 µM",[27],84.4%
same,IC90,[23],0.5 µM
Cc1cc(C)c2c(-c3ccccc3)cc(=O)oc2c1,IC90,[23],1100 µM
Cc1cc2oc(=O)cc(-c3ccccc3)c2c(C)c1-c1ccc(C(F)(F)F)cc1,IC90,[23],29 µM
Cc1cc2oc(=O)cc(-c3ccccc3)c2c(C)c1-c1ccc(C#N)cc1,IC90,[23],295 µM
Cc1cc2oc(=O)cc(-c3ccccc3)c2c(C)c1-c1ccc(Cl)cc1,IC90,[23],54 µM
Cc1ccc(-c2c(C)cc3oc(=O)cc(C)c3c2C)cc1,inhibition,[30],inactive
Cc1cc2oc(=O)cc(-c3cccnc3)c2c(C)c1-c1ccc(CN2CCOCC2)cc1,Activity,HepG2,Non-toxic
same,IC90,[23],1 µM
Cc1cc2oc(=O)cc(-c3ccccc3)c2c(C)c1-c1ccc(CO)cc1,Activity,HepG2,Non-toxic
same,"fraction unbound at 5 h, 1 µM",[25],0.006
same,solubility,[26],0.2 µM
same,"remaining at 5 h, 1 µM",[27],80.3%
same,IC90,[23],7 µM
Cc1cc2oc(=O)cc(-c3ccccc3)c2c(C)c1-c1ccc(C(C)O)cc1 (stereo not drawn),Activity,HepG2,Non-toxic
same,IC90,[23],4 µM
CC(=O)Nc1cccc(-c2cc(=O)oc3cc(C)c(-c4ccc(CN5CCOCC5)cc4)c(C)c23)c1,Activity,HepG2,Non-toxic
same,IC90,[23],12 µM
CNC(=O)c1ccc(-c2c(C)cc3oc(=O)cc(-c4ccccc4)c3c2C)cc1,Activity,HepG2,Non-toxic
same,IC90,[23],7 µM
Cc1ccc(-c2ccc3oc(=O)cc(-c4ccccc4)c3c2)cc1,inhibition at 250 µM,[30]; 168 h,24%
Cc1cc2oc(=O)cc(-c3ccccc3)c2c(C)c1-c1ccc(C)c2ccccc12,Activity,[24],inactive
Cc1cc2oc(=O)cc(-c3ccc(N)cc3)c2c(C)c1-c1ccc(CN2CCOCC2)cc1,IC90,[23],14 µM
Cc1cc2oc(=O)cc(-c3cccc(N)c3)c2c(C)c1-c1ccc(CN2CCOCC2)cc1,"fraction unbound at 5 h, 1 µM",[25],0.013
same,solubility,[26],89.3 µM
same,"remaining at 5 h, 1 µM",[27],88%
same,IC90,[23],0.4 µM
CCCCCCNCc1ccc(-c2c(C)cc3oc(=O)cc(-c4ccccc4)c3c2C)cc1,IC90,[23],4 µM
